Columns and labels:
HCT116 cells [1] = experiment: apoptosis of siRNA-expressing HCT116 cells treated with low-concentration anticancer agents, with or without rVEGF; assay type: cell-based, human; conditions: HCT116 not expressing siRNA (NT) and control siRNA cells, low concentrations, 60 hours
Protocol: The recombinant vectors that express vegf siRNA#1 and #2 and the vectors that express control siRNA were transfected into HCT116 cells (parent cells, wild-type p53). As a control cell, an HCT116 cell not transfected with a recombinant vector that expresses siRNA was used. These four types of cells were treated in the presence or absence of various anticancer agents having the final concentrations as described below for 60 hours. As the anticancer agent, etoposide (20 μmol/L), doxorubicin (170 nmol/L), and 5-FU (40 μmol/L) were used. With respect to the treated cells, apoptosis (%) was quantified in the same manner as in Example A1.
UTR RNA and function of VEGF protein. With the aim of clarifying an effect of blocking the function of vegf 5′ UTR RNA, recombinant VEGF protein (R&D systems, hereinafter referred to as “rVEGF”) was added to a culture supernatant of cells transfected with vegf siRNA in order to add VEGF protein that is decreased due to siRNA. […] Therefore, in Example A9, 1 ng/ml of rVEGF protein was added to the four types of cells. […] Then, these transfection cells were treated with anticancer agents in the same manner as described above.

p53-deleted cells HCT116 = experiment: apoptosis (TUNEL) in p53-deleted HCT116 cells with vegf siRNA and 5-FU; assay type: cell-based, human; conditions: p53-deleted cells HCT116, treatment with 5-FU
Protocol: Apoptotic cells were evaluated by a TUNEL staining method using in situ Cell Death Detection kit (Roche Diagnostic). […] The counting was performed with respect to at least 300 cells in one measurement.
Various types of cells were treated with 5-FU, which is an anticancer agent inducing apoptosis in a p53-dependent manner, and the sensitivity to apoptosis was analyzed. The vegf siRNA#1 vectors expressing siRNA#1, the vegf siRNA #2 vectors expressing siRNA #2, and the control siRNA vectors described above respectively were transfected into HCT 116 (parent cells) and p53-deleted cells HCT116. Then, the cells after 18 hours from the transfection was treated for 60 hours in the presence of […] of 5-FU (+) or in the absence of 5-FU (−). The proportion (%) of apoptosis positive cells in the thus-treated cells was calculated based on “Apoptotic evaluation 2” above (means±SD, n=4).

[2] = test system: noxa mRNA, puma mRNA, and p21 mRNA; experiment: expression of mRNAs induced in p53 pathways in HepG2 cells (Northern); assay type: cell-based, human; conditions: control siRNA HepG2 cells, 5-FU 30 μmol/L, 16 hours
Protocol: In the same manner, HepG2 cells transfected with each type of the vectors were treated for 16 hours in the presence of 5-FU (30 μmol/L) (+) or the absence of 5-FU (−). With respect to the treated cells, expression of noxa mRNA, puma mRNA, and p21 mRNA induced in p53 pathways was analyzed by the Northern blotting. […] In FIG. 1D, the first row from the top indicates expression of noxa mRNA, the second row indicates expression of puma mRNA, the third row indicates expression of p21 mRNA, and the fourth row indicates expression of gapdh mRNA. Definitions of the lanes in FIG. 1D are the same as those of FIG. 1C.

HepG2 cells = experiment: apoptosis (Apoptotic evaluation 1) of siRNA-expressing HepG2 cells treated with 5-FU; assay type: cell-based, human; conditions: control siRNA-expressing HepG2 cells treated with 5-FU
Protocol: Objective cells were treated with various anticancer agents, and then incubated with trypsin/EDTA to prepare cell suspensions. The cell suspensions were centrifuged and supernatants thereof were removed. Thereafter, the cell suspensions each were immobilized and stained with a solution of formaldehyde of 3.7%, Nonidet P40 of 0.5%, and 10 μg/mL of Hoechst33258 (Invitrogen) in PBS. […] The counting was performed with respect to at least 300 cells in one measurement.
Each type of the recombinant vectors was transfected into HepG2 cells for 18 hours in the same manner as in the above-described item (1). Each type of the transfection cells was treated with an anticancer agent “5-FU” having a predetermined concentration (0, 10, 30 μmol/L) for 60 hours. Then, the apoptosis (%) of the treated cells was examined according to “Apoptosis evaluation 1”. FIG. 1B is a graph showing apoptosis (%) in each type of the cells treated with 5-FU having a predetermined concentration (means±SD, n=3).

HCT116 cells [3] = experiment: p53 mRNA, vegf IresRNA and vegf mRNA in HCT116 cells exposed to genotoxic stress (Northern); assay type: cell-based, human
Protocol: HCT116 cells (parent cells) were exposed to genotoxic stress that upregulates the expression of p53 mRNA. […] Also, HCT116 cells were exposed to UV-B for 1 minute. Then, after placing them under non-exposed conditions for a predetermined time (6, 12 hours), the expressions were examined in the same manner as in the above.

p53 mRNA [4] = experiment: cell-free protein synthesis reaction after heteroduplex formation; assay type: biochemical, human; conditions: cell-free protein synthesis with p53 mRNA/5′ UTR RNA heteroduplex, cycloheximide added
Protocol: (5) Detection of p53 mRNA and its Degradation Product In the same manner as in the above-described item (3), mutant 5′ UTR RNA or 5′ UTR was incubated with p53 mRNA. As described above, mutant 5′ UTR RNA and p53 mRNA form a heteroduplex by incubation. Then, using the treated RNA samples, in the presence or absence of cycloheximide (final concentration of […]) or in the presence of purified ribosome prepared by a sucrose density-gradient centrifugation method, a cell-free protein synthesis reaction was performed. The cell-free protein synthesis was carried out by making reference to the research paper (Huez, I. et al. Mol. Cell. Biol. 18, 6178-6190 (1998)) or using Wako PURE system (trade name, Wako Chemical) following the specifications thereof.
In the same manner as in the above-described item (4), RNAs each were incubated in the combination shown in FIG. 8E, and cell-free protein synthesis was carried out. In this state, [^35S] methionine coexisted in a reaction solution of cell-free protein synthesis. Then, p53 protein synthesized in vitro was separated by SDS-PAGE using a polyacrylamide gel of 12%, and a dried gel was subjected to an autoradiography. FIG. 8E is an autoradiography showing synthesis of p53 protein in a reaction solution of cell-free protein in the presence of vegf 5′ UTR. […]

p53 mRNA [5] = experiment: degradation/silencing of exogenous p53 mRNA in H1299 cells (Northern); assay type: cell-based, human; conditions: H1299, cycloheximide 50 μg/ml, 16 hours
Protocol: In the same manner as in Example A4, the p53 expression vectors and each type of the recombinant plasmid vectors, pVC and pVCmut5′, or empty vectors (mock) were cotransfected into H1299 cells (p53 null), and the cells were cultured for 12 hours. RNA was collected from each type of the transfection cells, the RNA was separated by a denatured agarose gel electrophoresis, and exogenous p53 mRNA and its degradation product were detected by the Northern blotting. FIG. 7A is a photograph showing exogenous p53 mRNA and its degradation product in each type of the cells. In FIG. 7A, the lane 1 “mock” indicates the result obtained regarding the cells transfected with the empty vectors, the lane 2 “VEGF mut5′” indicates the result obtained regarding the cells transfected with pVCmut5′, and the lane 3 “VEGF 5” indicates the result obtained regarding the cells transfected with pVC. The size (nt) of an RNA marker (Ambion, Inc.) was shown on the left of the photograph of blotting.
First, the p53 expression vectors and each type of the recombinant plasmid vectors, pVC and pVCmut5′, were cotransfected into H1299 cells (p53 null), and the cells were cultured for 8 hours. […] With respect to the treated cells, the expression level of p53 mRNA was analyzed by the Northern blotting. […]

vegf IresRNA = experiment: p53 mRNA in p53-deleted HCT116 cotransfected with p53 vector, vegf IresRNA vector and decoy or antisense LNA-DNA (Northern); assay type: cell-based, human
[6] = test system: HCT116 cells (wild-type p53); experiment: survival rate of HCT116 cells transfected with decoy or antisense LNA-DNA after 5-FU; assay type: cell-based, human; conditions: after 5-FU (40 μmol/L)
Protocol: The wild-type and mutant-type p53 decoy LNA-DNA were transfected into HCT116 cells (wild-type p53). The cells transfected with the decoys were cultured in McCoy's 5A medium containing 10% fetal bovine serum and 100 μg/ml (100 units/ml) of streptomycin, and the relative value of the survival rate (%) was calculated according to “Apoptosis evaluation 2”. The relative value was obtained with the number of viable cells of 5-FU untreated cells being considered as 100%. In addition, the survival rate of HCT cells (p53) not transfected with the decoys also was calculated in the same manner as described above.
The wild-type and mutant-type vegf antisenses were transfected into HCT116 cells (wild-type p53). With respect to the cells transfected with the antisenses, the relative value of the survival rate (%) was calculated in the same manner as in Example C4. The relative value was obtained with the number of viable cells of 5-FU untreated cells being considered as 100%. In addition, the survival rate of HCT cells (wild-type p53) not transfected with the vegf antisenses was also calculated in the same manner as described above.

[7] = vegf antisense LNA-DNA cotransfected with vegf IresRNA and p53 expression vectors

Compound: O=c1[nH]cc(F)c(=O)[nH]1 [5-FU, 5-fluorouracil, reference compound]
- significant enhancement of apoptosis (HCT116 cells [1]): not induced
- proportion of apoptosis (p53-deleted cells HCT116): increased slightly
- expression of p21 mRNA [2]: slightly induced
- proportion of apoptosis (HepG2 cells): slightly increased
- vegf IresRNA and vegf mRNA expression (HCT116 cells [3]; HCT116, 5-FU 80 μmol/L or MMC 6 μg/ml, 0, 6, 12 hours): increased markedly
- expression of the p53 mRNA (HCT116 cells [3]; HCT116, 5-FU 80 μmol/L, MMC 6 μg/ml or cisplatin 5 μg/ml, 0, 6, 12 hours): suppressed

Compound: C[C@@H]1C[C@@H]([C@H](O)CC2CC(=O)NC(=O)C2)C(=O)[C@@H](C)C1 [cycloheximide]
- effect on partial degradation of p53 mRNA (p53 mRNA [4]): completely blocked
- effect on silencing of p53 mRNA due to vegf 5′ UTR (p53 mRNA [5]): marked inhibition of silencing

Compound: COc1cccc2c1C(=O)c1c(O)c3c(c(O)c1C2=O)C[C@@](O)(C(=O)CO)C[C@@H]3O[C@H]1C[C@H](N)[C@H](O)[C@H](C)O1 [doxorubicin, reference compound]
- significant enhancement of apoptosis (HCT116 cells [1]): not induced

Compound: COc1cc([C@@H]2c3cc4c(cc3[C@@H](O[C@@H]3O[C@@H]5CO[C@@H](C)O[C@H]5[C@H](O)[C@H]3O)[C@H]3COC(=O)[C@H]23)OCO4)cc(OC)c1O [etoposide, reference compound]
- significant enhancement of apoptosis (HCT116 cells [1]): not induced

Compound: mutant-type p53 decoy: LNA-DNA of the p53 decoy sequence introduced with mutation, SEQ ID NO: 94, 5′-cccGCcCACCcGGctgGTcca-3′ (DNA CCCGCCCACCCGGCTGGTCCA; LNA-DNA mixmer, LNA positions not given here)
- expression amount of p53 mRNA (vegf IresRNA; p53 decoy LNA-DNA cotransfected with vegf IresRNA and p53 expression vectors): small

Compound: mutant-type vegf antisense: antisense LNA-DNA having the sequence introduced with mutation, SEQ ID NO: 95, 5′-cccGCcCGggTcGTcCgcAccA-3′ (antisense CCCGCCCGGGTCGTCCGCACCA; LNA-DNA mixmer, LNA positions not given here)
- expression amount of p53 mRNA (vegf IresRNA; [7]): small

Compound: wild-type p53 decoy: LNA-DNA corresponding to a sequence from base 462 to base 482 of p53 mRNA, SEQ ID NO: 93, 5′-ccccgcgtggcccctgcacca-3′ (DNA CCCCGCGTGGCCCCTGCACCA; LNA-DNA mixmer, LNA positions not given here)
- survival rate of cells ([6]; p53 decoy, vs no decoy and mutant-type decoy): decreased

Compound: wild-type vegf antisense: antisense LNA-DNA complementary to bases 693 to 714 of vegf IresRNA, SEQ ID NO: 74, 5′-ccccgcgcggaccacggctcct-3′ (antisense CCCCGCGCGGACCACGGCTCCT; LNA-DNA chimera, LNA positions not given here)
- expression amount of p53 mRNA (vegf IresRNA; [7]): marked expression amount
- survival rate of cells ([6]; vegf antisense, vs cells (none) not transfected): markedly decreased

Source: US20100197765A1, “METHOD FOR PROMOTING THE EXPRESSION OF P53, AND P53 EXPRESSION PROMOTER FOR USE IN THE METHOD” (THE UNIVERSITY OF TOKUSHIMA, priority 2007, published 2010)
